Legend:
biofilm = details: Flow Cytometry, MetaMorph image analysis; cited from earlier work
[1] = Check of Glutaraldehyde content when combined with BAK at the CMC; format: physicochemical
Source text: The multi-level mechanism of action is as follows. The Glutaraldehyde produces an inherent bacteriocidal effect. BAK lowers surface tension and thus aids in the spread of the Glut on the biofilm covered surface and serves as a binding agent between the Glut and the application surface. The BAK spreads the Glutaraldehyde on the cell surface and increases depth of penetration. Thus, the BAK and Glutaraldehyde are mutually synergistic in attacking and achieving the desired kill effect. Because BAK is a quaternary ammonium salt one would suppose that it would react adversely with the Glutaraldehyde and cause aldehyde consumption. For this reason it became mandatory to check the Glutaraldehyde content and determine if there was a decrease at the CMC. […] This is likely correct due to the small BAK concentration necessary to reach the CMC. […] As a matter of fact it acted synergistically to enhance cidal effects due to its surfactant action.

[2] = test system: E. Coli, P. aeruginosa, salmonella typhii, and kiebsiella; assay: MIC of disinfectants by agar dilution; format: cell-based; details: individually determined
Method: In addition to the foregoing, E. Coli, P. aeruginosa, salmonella typhii, and kiebsiella were tested using selective media and biochemical means. Disk diffusion methods were used testing disinfectant resistance by measuring zones of inhibition after eighteen hours of incubation. MICs of disinfectants were determined by agar dilution. […] The preferred determined exposure is actually 4× of Glut to BAK as determined by log reduction effectiveness. This was supported by running an MIC (inhibitory) versus a MBC (bactericidal) test. Using the McFarland standard on E. coli, with the combination Glut/BAK, the result was that the bactericidal amount was 2× the inhibitory amount in ppm. This was done via serial dilutions on media Nutrient Broth.

[3] = test system: biofilm communities of E. faecalis; assay: Biofilm formation / LIVE/DEAD staining assay on E. faecalis biofilm communities; format: cell-based; details: components tested separately
Source text: In experiments, biofilm communities of E. faecalis were created following the techniques of Bergenholtz and Chavez, J. Endo. Coating (2010), using the present formulation. […] This was confirmed by a staining LIVE/DEAD assay. […] Clearly, Glutaraldehyde alone is not as effective as BAK, nor vice versa. Together in “proper ratio” the formula is outstanding at reducing biofilm as well as killing the necessary bacteria. This synergy was confirmed by the fractional inhibitory concentration index (FICI). The FICI for a synergistic mixture, using checkerboard, gave the combination of Glut/BAK a 0.35 FICI which is inhibitory. [Greene et al., App Env Micro Vol 72: 5254-5259 (2006)]. Mixtures according to this test are synergistic when the lowest FICI is below 0.8 therefore giving credence to the present concept. Synergy of Glut/BAK is known but has not been fully tested since the tested material has been Glut/Quats (dual chains) and not BAK. […] The present determination of 4:1 (Glut:BAK), FICI independently determined, corrects this missing component to make an effective formulation. Strong synergy has been shown between Glut/BAK (FICI 0.35). The biofilm reduction/penetration ability of BAK combined with the broad spectrum biocidal activities of Glut enable and achieve, at lower concentrations, due to synergy, the destruction of the SRBs in oil/gas as well the pertinent bacteria in health care.
This was confirmed by the staining LIVE/DEAD assay. […] Glutaraldehyde alone is not as effective as BAK. Together in proper ratio the formula is outstanding at reducing biofilm as well as killing the necessary bacteria, and provides an excellent synergistic complimentary approach to eliminating the bacterial/biofilm problem.

[4] = Pendant drop surface tension measurement (Tate's equation); format: physicochemical; details: pendant drop method, ten drops
Source text: BAK's ability to repel biofilm formation as well as penetrate is based upon the physico/chemical and steric changes provoked by hydrophobic changes and electrostatic repulsion. This is due to the positively charged nitrogen that reacts with the acidic phospholipids in the cell membrane. This is the area of penetration bringing along the Glut (cidal component) increasing surface pressure which decreases the adhesive potential by affecting the osmoregularity of bacterial adhesins. […] The BAK molecules at the proper concentration are saturated or at the critical micelle concentration (CMC). When the BAK is above the CMC and the surface tension is constant the best wetting properties are achieved. The stated BAK concentration is important since low doses can actually stimulate metabolic reactions as well as cause resistance. Again the proper importance of “concentration ratios” develops the full synergistic effect. In an example the pendant drop method was used to determine surface tension activity of BAK. Ten drops were measured with a precision balance to calculate surface energy. Tate's equation was used for calculation. It was concluded that the surface tension was reduced by approximately 53%. This illustrates that the addition of the BAK to the formulation permits a better spreading of the solution.

Compound	penetration of biofilm (biofilm)	reduction in Glutaraldehyde content when combined with BAK [1]	MIC [2] [%]	kill (LIVE/DEAD staining) [3]	surface tension reduction [4]	bio-volume reduction [3]
O=CCCCC=O [Glutaraldehyde]	little or no penetration of biofilm	did not show any reduction	0.3	45%	–	–
benzalkonium chloride [BAK]	peripheral penetration followed by inward migration	–	0.13	less so	approximately 53%	over 70 fold

From US9955688B2, “Biocidal aldehyde composition” (priority 2015, dated 2018)
